From PubChem BioAssay (NCI)
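The compound was tested at five concentrations on cells cultured in 96-well plates, with a 48-hour exposure period. TGI is the concentration that stops growth completely.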

Columns and labels:
Assay in all cases: NCI anticancer screen, dose series, 48 h
OVCAR-5 ovarian = system: OVCAR-5 ovarian
BT-549 breast = system: BT-549 breast
SF-295 CNS = system: SF-295 CNS
NCI/ADR-RES ovarian = system: NCI/ADR-RES ovarian
MOLT-4 leukemia = system: MOLT-4 leukemia
SF-268 CNS = system: SF-268 CNS
SK-OV-3 ovarian = system: SK-OV-3 ovarian
UACC-257 melanoma = system: UACC-257 melanoma
NCI-H23 lung = system: NCI-H23 lung
MDA-N = system: MDA-N
HS 578T breast = system: HS 578T breast
T-47D breast = system: T-47D breast
SK-MEL-5 melanoma = system: SK-MEL-5 melanoma
LOX IMVI melanoma = system: LOX IMVI melanoma
SK-MEL-28 melanoma = system: SK-MEL-28 melanoma
HOP-92 NSCLC = system: HOP-92 NSCLC
HCC-2998 colon = system: HCC-2998 colon
786-0 renal = system: 786-0 renal
MDA-MB-231 breast = system: MDA-MB-231 breast
M19-MEL melanoma = system: M19-MEL melanoma

SMILES | TGI (OVCAR-5 ovarian) [µM] | TGI (BT-549 breast) [µM] | TGI (SF-295 CNS) [µM] | TGI (NCI/ADR-RES ovarian) [µM] | TGI (MOLT-4 leukemia) [µM] | TGI (SF-268 CNS) [µM] | TGI (SK-OV-3 ovarian) [µM] | TGI (UACC-257 melanoma) [µM] | TGI (NCI-H23 lung) [µM] | TGI (MDA-N) [µM] | TGI (HS 578T breast) [µM] | TGI (T-47D breast) [µM] | TGI (SK-MEL-5 melanoma) [µM] | TGI (LOX IMVI melanoma) [µM] | TGI (SK-MEL-28 melanoma) [µM] | TGI (HOP-92 NSCLC) [µM] | TGI (HCC-2998 colon) [µM] | TGI (786-0 renal) [µM] | TGI (MDA-MB-231 breast) [µM] | TGI (M19-MEL melanoma) [µM]
CN(C)CCN(C(=Nc1ccccc1)N1CCCC1)c1ccccc1 | > 100 | > 100 | > 100 | > 100 | > 100 | > 100 | > 100 | > 100 | > 100 | 86.6 | > 100 | > 100 | > 100 | > 100 | > 100 | > 100 | – | – | – | –
O=C(/C=C(\O)c1ccccc1)c1cc(-c2ccccc2)n(-c2ccccc2)n1 | > 100 | 26.1 | > 100 | > 100 | 4.51 | > 100 | > 100 | > 100 | > 100 | > 100 | > 100 | 37.9 | 48.7 | > 100 | – | – | > 100 | 67.8 | 64.4 | –
NCc1cc(O)c(O)c(O)c1 | > 100 | – | > 100 | – | > 100 | > 100 | > 100 | > 100 | – | – | – | – | > 100 | > 100 | > 100 | > 100 | – | > 100 | – | > 100
O=C(CCN1CCOCC1)C(=Cc1ccccc1)C(=O)CCN1CCOCC1 | 33.6 | – | 29.1 | 13.9 | 3.09 | 15.1 | 31.1 | 3.5 | 7.92 | – | – | – | 18.2 | 4.29 | 5.64 | 4.06 | 26.9 | – | – | 7.64
N#Cc1c(N2CCOCC2)[nH]c(=O)c(C(c2c(Cl)cccc2Cl)c2c(O)c(C#N)c(N3CCOCC3)[nH]c2=O)c1O | 31.9 | 32.8 | > 100 | > 100 | 36.2 | 51.1 | – | 34 | 32.8 | – | 58.1 | – | 35.4 | 25.6 | 32.9 | 37.8 | 27.5 | > 100 | 30.4 | –
O=C(N/N=C\C(F)(F)F)c1ccncc1 | > 100 | > 100 | > 100 | > 100 | > 100 | – | > 100 | > 100 | 50.6 | – | > 100 | – | > 100 | > 100 | > 100 | > 100 | > 100 | – | – | –
COc1cc(C2C(Cl)C(=O)N2NC(=O)c2ccc(NC(C)=O)cc2OC)ccc1O (centres undefined) | 28.4 | 33.9 | > 100 | > 100 | 22.1 | 61.5 | > 100 | – | 39.8 | 50.7 | – | 52.2 | 29.4 | 26.4 | 97.8 | 31.3 | – | 33.3 | – | –
C[N+](C)=c1nc(N2CCc3ccccc3C2)ss1 | – | – | – | – | > 100 | > 100 | > 100 | > 100 | – | – | – | – | > 100 | – | > 100 | – | > 100 | > 100 | – | > 100
CN(C)Cc1cc(C(C)(C)C)cc(C2CCCCC2)c1O | 34.9 | – | – | 44.4 | 22.6 | 32.5 | 28.7 | 21.8 | 72.2 | – | 33.9 | 21.6 | 27.4 | 28.5 | 26.3 | – | – | 41.5 | 26.7 | –
COc1cc(C(=O)Nc2cc(C(N)=O)cc(OC)c2OC)cc(NC(=O)/C=C/c2ccccc2)c1OC | > 100 | > 100 | > 100 | > 100 | > 100 | – | > 100 | > 100 | > 100 | > 100 | – | – | – | – | > 100 | > 100 | – | – | 57.5 | –
Cc1ccc(S(=O)(=O)NCCCSCCSCCCN)cc1 | – | – | > 100 | > 100 | > 100 | > 100 | > 100 | > 100 | > 100 | > 100 | > 100 | > 100 | > 100 | > 100 | > 100 | > 100 | > 100 | – | > 100 | –
O=c1oc2ccc([N+](=O)[O-])cc2c(Nc2ccc3c(c2)S(=O)(=O)c2ccccc2O3)c1[N+](=O)[O-] | > 100 | > 100 | > 100 | > 100 | > 100 | > 100 | > 100 | > 100 | > 100 | > 100 | > 100 | > 100 | > 100 | > 100 | > 100 | > 100 | > 100 | > 100 | > 100 | –
CC(=O)c1cc(C)n2c1CS[C@@H]2c1ccccc1 | > 100 | > 100 | > 100 | > 100 | 96.5 | > 100 | > 100 | > 100 | > 100 | – | > 100 | > 100 | > 100 | > 100 | > 100 | > 100 | – | 50.5 | > 100 | –
CC1OC(OC2C(Oc3cc(O)c4c(c3)O[C@H](c3ccc(O)cc3)CC4=O)OC(CO)C(O)C2O)C(O)C(O)C1O (some centres undefined) | > 100 | > 100 | > 100 | > 100 | > 100 | > 100 | > 100 | > 100 | > 100 | > 100 | > 100 | > 100 | > 100 | > 100 | > 100 | > 100 | > 100 | > 100 | > 100 | –
CC[C@@H]1/C=C/C=C/C[C@H](C)[C@@H](O)[C@](C)(O)C(=O)[C@H](C)[C@@H](O)[C@H](C)C(=O)[C@H](C)[C@@H](O)[C@H](C)/C=C/C(=O)O[C@H]2[C@@H](C)[C@@H](CC1)O[C@@]1(CC[C@@H](C)[C@@H](CC(C)O)O1)[C@@H]2C (some centres undefined) | 7.38 | 4.94 | 9.05 | 5.48 | 6.26 | 12.7 | 14.5 | 3.09 | 7.94 | 6.72 | > 25.1 | – | 1.7 | 4.32 | 25.3 | 6.11 | 6.68 | 4.45 | 6.65 | –
CN1C(=O)C2C=C3CCCCC3=CC2N(C)C1=O (centres undefined) | > 100 | > 100 | > 100 | > 100 | > 100 | > 100 | > 100 | > 100 | > 100 | > 100 | > 100 | > 100 | > 100 | > 100 | > 100 | > 100 | > 100 | – | > 100 | –
CC(=O)NNc1nc(C)c(C(=O)NNC(=O)C(=O)Nc2c(C)cccc2C(C)(C)C)s1 | > 100 | – | > 100 | – | > 100 | > 100 | > 100 | > 100 | > 100 | – | – | – | > 100 | > 100 | > 100 | > 100 | > 100 | – | – | > 100
